Experimental data reported in ChEMBL document CHEMBL5209568, “Membrane potential based assay for SLC5A11 using HEK-293 SLC5A11 OE cells” (2022).

Biological target: T1, Sodium/myo-inositol cotransporter 2 (Homo sapiens, UniProt Q8WWX8)
T1 sequence (Q8WWX8 whole entry): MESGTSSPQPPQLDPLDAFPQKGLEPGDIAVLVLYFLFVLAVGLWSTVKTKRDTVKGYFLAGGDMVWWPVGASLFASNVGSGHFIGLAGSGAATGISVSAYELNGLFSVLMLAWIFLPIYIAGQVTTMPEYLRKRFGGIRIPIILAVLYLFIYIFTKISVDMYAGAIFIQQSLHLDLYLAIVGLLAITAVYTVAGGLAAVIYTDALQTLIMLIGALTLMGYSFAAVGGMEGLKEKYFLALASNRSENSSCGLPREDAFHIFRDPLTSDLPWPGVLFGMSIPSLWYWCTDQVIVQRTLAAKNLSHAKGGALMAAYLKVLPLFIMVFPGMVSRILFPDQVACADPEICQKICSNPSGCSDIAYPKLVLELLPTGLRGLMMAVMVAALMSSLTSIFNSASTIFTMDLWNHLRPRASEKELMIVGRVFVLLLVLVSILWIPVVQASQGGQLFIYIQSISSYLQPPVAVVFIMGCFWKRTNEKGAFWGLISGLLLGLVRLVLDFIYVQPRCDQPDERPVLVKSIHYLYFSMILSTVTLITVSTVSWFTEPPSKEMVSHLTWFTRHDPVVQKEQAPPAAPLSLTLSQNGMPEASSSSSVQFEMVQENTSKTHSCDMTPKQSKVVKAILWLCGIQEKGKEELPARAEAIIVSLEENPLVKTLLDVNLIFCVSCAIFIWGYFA
Experiment: Substrate uptake by the Sodium/myo-inositol cotransporter 2 (SMIT2, SLC5A11) as assessed by the fluorescent FLIPR membrane potential dye in HEK-293 JumpIN-SLC5A11 cells (PubChem AID: 1794826)
Type: functional, cell-based, HEK293

Work on `O[C@H]1[C@@H](O)[C@@H](O)[C@@H](O)[C@@H](O)[C@@H]1O` yielded an EC50 of 104 µM.
